# Laboratory results as given in patent publication US20260097139A1, “GONADOTROPIN-RELEASING HORMONE RECEPTOR (GnRHR) TARGETED THERAPEUTICS AND USES THEREOF” (Radionetics Oncology, Inc., priority 2022, published 2026).
# Molecular target: T1, human GnRH receptor (Homo sapiens, UniProt P30968)
# T1 construct: expressed in transfected cells
# T1 sequence (P30968 1-328): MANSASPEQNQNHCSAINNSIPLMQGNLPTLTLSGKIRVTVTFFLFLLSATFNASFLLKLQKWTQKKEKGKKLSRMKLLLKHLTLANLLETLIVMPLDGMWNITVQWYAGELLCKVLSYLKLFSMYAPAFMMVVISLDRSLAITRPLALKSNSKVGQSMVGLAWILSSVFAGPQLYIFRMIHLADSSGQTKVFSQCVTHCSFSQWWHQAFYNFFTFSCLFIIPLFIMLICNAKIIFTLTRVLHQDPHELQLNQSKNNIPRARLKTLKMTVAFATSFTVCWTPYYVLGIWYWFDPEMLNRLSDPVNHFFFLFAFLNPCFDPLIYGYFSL
# Test: IP-One functional assay for GnRHR (reported as hGnRHR Binding Ki)
# Assay type: cell-based
# Details: incubation time 60 min; FlpIn T-Rex 293 cells expressing human GnRH receptor; read-out: hGnRHR Binding Ki 60 min
# Text: General overview: GnRHR is a Gq/11-coupled receptor that mediates the action of the GnRH hormone by activating the phosphatidylinositol-calcium second messenger system. Activation of the GnRHR induces the accumulation of inositol monophosphate, a stable metabolite of IP-3, that can be characterized as a measure of agonistic activity (increase in IP-One) or antagonistic activity (blockade of IP-One accumulation) by compounds of the invention. One example of an intracellular IP-One assay used to characterize GnRHR antagonists is described below.
# 24 hours prior to the assay, 30,000 FlpIn T-Rex 293 Cells (ThermoFisher #R78007) stably expressing the functional human GnRH receptor upon induction with tetracycline were plated in a 96-well tissue culture-treated plate in FlpIn T-Rex 293 Growth Medium [DMEM (Corning #10-013-CM) supplemented with 10% fetal bovine serum (Gemini Bio-Products #900-208), 100 U/mL penicillin; 100 μg/mL streptomycin; 2 mM L-glutamine (Gemini Bio-Products #400-110)] and 50 ng/mL tetracycline hydrocholoride (Sigma, T7660). Cells were cultured at 37° C., 5% CO2 and 95% humidity. On the day of the assay, the growth media was discarded and the cells were treated with 50 μL of a dose response curve of GnRH (Bachem #4033013) in the presence of various concentrations of fixed compound in assay buffer [10 mM HEPES (Biopioneer Cat #C0113) pH 7.4, 1 mM CaCl2) (Fisher Scientific BP510-100), 0.5 mM MgCl2 (Sigma M8266-100G), 4.2 mM KCl (Fisher Scientific P330-500), 146 mM NaCl (Spectrum Chemical #SO155), 5.5 mM Glucose (Sigma G7528), 50 mM LiCl (Fisher Scientific L121-100), 0.1% bovine serum albumin (Fisher Scientific Cat #BP1600)] and incubated for 1 hour at 37° C. (the final concentrations of GnRH ranged from 0-250 nM and the final concentrations of the compound ranged from 0-10,000 nM). 50 μL of lysis buffer (HRTF IP-one kit, Cisbio) was added on top of the treatment to lyse the cells. The lysate was transferred to 384-well plates and IP-one detection and visualization antibodies were added and incubated for 1-24 hours at room temperature. The time-resolved fluorescent signal was read with a Tecan M1000Pro (Tecan) multiplate reader. The intracellular IP-one concentrations were calculated by regression to a standard curve and were plotted vs. the concentration of the GnRH agonists in the presence of various concentrations of antagonist and the Ks of the compounds were calculated using standard curve-fitting methods. All data manipulations were performed using GraphPad Prism v8 (GraphPad, San Diego, CA).
# For some analogs, the incubation time was 2 h or 4 h, as noted in Table A.
row,Ki,Compound
1,< 0.01 µM,"Cc1cccc(OCCC(=O)NCCOCCOCCOCCOCCOCCOCCOCCOCCNC(=O)CN2CCN(CC(=O)O)CCN(CC(=O)O)CCN(CC(=O)O)CC2)c1N(C)C(=O)c1ccc(Cl)c(-c2cnc(C(F)(F)F)cc2C#N)c1 [Compound 8, 2,2′,2″-(10-(33-(2-(4-chloro-3-(4-cyano-6-(trifluoromethyl)pyridin-3-yl)-N-methylbenzamido)-3-methylphenoxy)-2,31-dioxo-6,9,12,15,18,21,24,27-octaoxa-3,30-diazatritriacontyl)-1,4,7,10-tetraazacyclododecane-1,4,7-triyl)triacetic acid]"
2,< 0.01 µM,"COc1ccccc1N(C)C(=O)c1cc(-c2cnc(C(F)(F)F)cc2C#N)c(Cl)cc1OCCOCCOCCOCCOCCOCCOCCOCCOCCNC(=O)CN1CCN(CC(=O)O)CCN(CC(=O)O)CCN(CC(=O)O)CC1 [Compound 5M-In, indium(III) 2,2′,2″-(10-(29-(5-chloro-4-(4-cyano-6-(trifluoromethyl)pyridin-3-yl)-2-((2-methoxyphenyl) (methyl)carbamoyl)phenoxy)-2-oxo-6,9,12,15,18,21,24,27-octaoxa-3-azanonacosyl)-1,4,7,10-tetraazacyclododecane-1,4,7-triyl)triacetate]"
3,< 0.01 µM,"CN(C(=O)c1ccc(Cl)c(-c2cnc(C(F)(F)F)cc2C#N)c1)c1ccccc1OCCOCCOCCOCCOCCOCCOCCOCCOCCNC(=O)CN1CCN(CC(=O)O)CCN(CC(=O)O)CCN(CC(=O)O)CC1 [Compound 3M-In, indium(III) 2,2′,2″-(10-(29-(2-(4-chloro-3-(4-cyano-6-(trifluoromethyl)pyridin-3-yl)-N-methylbenzamido)phenoxy)-2-oxo-6,9,12,15,18,21,24,27-octaoxa-3-azanonacosyl)-1,4,7,10-tetraazacyclododecane-1,4,7-triyl)triacetate]"
4,< 0.01 µM,"COc1ccccc1N(C)C(=O)c1cc(-c2cnc(C(F)(F)F)cc2C#N)c(Cl)cc1OCCCC(=O)NCCOCCOCCOCCOCCOCCOCCOCCOCCNC(=O)CN1CCN(CC(=O)O)CCN(CC(=O)O)CCN(CC(=O)O)CC1 [Compound 6M-In, indium(III) 2,2′,2″-(10-(34-(5-chloro-4-(4-cyano-6-(trifluoromethyl)pyridin-3-yl)-2-((2-methoxyphenyl)(methyl)carbamoyl)phenoxy)-2,31-dioxo-6,9,12,15,18,21,24,27-octaoxa-3,30-diazatetratriacontyl)-1,4,7,10-tetraazacyclododecane-1,4,7-triyl)triacetate]"
5,< 0.01 µM,"CN(C(=O)c1ccc(Cl)c(-c2cnc(C(F)(F)F)cc2C#N)c1)c1ccccc1OCCC(=O)NCCOCCOCCOCCOCCOCCOCCOCCOCCNC(=O)CN1CCN(CC(=O)O)CCN(CC(=O)O)CCN(CC(=O)O)CC1 [Compound 2, 2,2′,2″-(10-(33-(2-(4-chloro-3-(4-cyano-6-(trifluoromethyl)pyridin-3-yl)-N-methylbenzamido)phenoxy)-2,31-dioxo-6,9,12,15,18,21,24,27-octaoxa-3,30-diazatritriacontyl)-1,4,7,10-tetraazacyclododecane-1,4,7-triyl)triacetic acid]"

# Same assay, conditions: incubation time 2 h; FlpIn T-Rex 293 cells expressing human GnRH receptor; read-out: hGnRHR Binding Ki 2 h
row,Ki,Compound
1,< 0.01 µM,"COc1nc(OCCOCCOCCOCCOCCOCCOCCOCCOCCNC(=O)CN2CCN(CC(=O)O)CCN(CC(=O)O)CCN(CC(=O)O)CC2)nc(OC)c1NC(=O)c1ccc(Oc2cc3c(cc2C)CCC3(C)C)o1 [Compound 4, 2,2′,2″-(10-(29-((4,6-dimethoxy-5-(5-((3,3,6-trimethyl-2,3-dihydro-1H-inden-5-yl)oxy)furan-2-carboxamido)pyrimidin-2-yl)oxy)-2-oxo-6,9,12,15,18,21,24,27-octaoxa-3-azanonacosyl)-1,4,7,10-tetraazacyclododecane-1,4,7-triyl)triacetic acid]"
2,< 0.01 µM,"COc1nc(SCCC(=O)NCCC[C@@H](NC(=O)CN2CCN(CC(=O)O)CCN(CC(=O)O)CCN(CC(=O)O)CC2)C(=O)O)nc(OC)c1NC(=O)c1ccc(Oc2cc3c(cc2C)CCC3(C)C)o1 [Compound 16, (R)-2,2′,2″-(10-(2-((1-carboxy-4-(3-((4,6-dimethoxy-5-(5-((3,3,6-trimethyl-2,3-dihydro-1H-inden-5-yl)oxy)furan-2-carboxamido)pyrimidin-2-yl)thio)propanamido)butyl)amino)-2-oxoethyl)-1,4,7,10-tetraazacyclododecane-1,4,7-triyl)triacetic acid]"
3,< 0.01 µM,"COc1nc(SCCC(=O)NCCN(C)CCNC(=O)[C@H](N)CCCNC(=O)CN2CCN(CC(=O)O)CCN(CC(=O)O)CCN(CC(=O)O)CC2)nc(OC)c1NC(=O)c1ccc(Oc2cc3c(cc2C)CCC3(C)C)o1 [Compound 19, (R)-2,2′,2″-(10-(7-amino-18-((4,6-dimethoxy-5-(5-((3,3,6-trimethyl-2,3-dihydro-1H-inden-5-yl)oxy)furan-2-carboxamido)pyrimidin-2-yl)thio)-12-methyl-2,8,16-trioxo-3,9,12,15-tetraazaoctadecyl)-1,4,7,10-tetraazacyclododecane-1,4,7-triyl)triacetic acid]"
4,< 0.01 µM,"COc1nc(SCCC(=O)NCCN(C)CCNC(=O)CN2CCN(CC(=O)O)CCN(CC(=O)O)CCN(CC(=O)O)CC2)nc(OC)c1NC(=O)c1ccc(Oc2cc3c(cc2C)CCC3(C)C)o1 [Compound 17, 2,2′,2″-(10-(2-((2-((2-(3-((4,6-dimethoxy-5-(5-((3,3,6-trimethyl-2,3-dihydro-1H-inden-5-yl)oxy)furan-2-carboxamido)pyrimidin-2-yl)thio)propanamido)ethyl)(methyl)amino)ethyl)amino)-2-oxoethyl)-1,4,7,10-tetraazacyclododecane-1,4,7-triyl)triacetic acid]"
5,< 0.01 µM,"CC1(C)CCN(S(=O)(=O)c2cc(-c3cnc(C(F)(F)F)cc3C#N)c(Cl)cc2OCCOCCOCCOCCOCCOCCOCCOCCOCCNC(=O)CN2CCN(CC(=O)O)CCN(CC(=O)O)CCN(CC(=O)O)CC2)c2ccccc21 [Compound 7, 2,2′,2″-(10-(29-(5-chloro-4-(4-cyano-6-(trifluoromethyl)pyridin-3-yl)-2-((4,4-dimethyl-3,4-dihydroquinolin-1(2H)-yl)sulfonyl)phenoxy)-2-oxo-6,9,12,15,18,21,24,27-octaoxa-3-azanonacosyl)-1,4,7,10-tetraazacyclododecane-1,4,7-triyl)triacetic acid]"
